Data from ChEMBL document CHEMBL4043138, “Synthesis of antimalarial amide analogues based on the plant serrulatane diterpenoid 3,7,8-trihydroxyserrulat-14-en-19-oic acid” (Bioorg Med Chem Lett, 2017).
Activity calls are given as the source filed them. No cut-off for these calls is given here.

How the values were obtained:
[1] = Selectivity index, ratio of IC50 for HEK293 cells to IC50 for Plasmodium falciparum 3D7; format: toxicity; conditions: human, HEK293 cells versus Plasmodium falciparum 3D7; read-out: Ratio IC50
[2] = (§1) Cytotoxicity against HEK293 cells assessed as cell growth inhibition at 80 uM after 72 hrs by Alamar blue assay relative to control; format: cell-based; conditions: human, HEK293 cells; read-out: GI
[3] = test system: Plasmodium falciparum; assay: Antimalarial activity against Plasmodium falciparum 3D7 after 72 hrs by DAPI staining-based fluorescence microscopic analysis; format: functional; conditions: 3D7, 72 h
[4] = test system: HEK293; assay: Cytotoxicity against HEK293 cells assessed as cell growth inhibition after 72 hrs by Alamar blue assay; format: cell-based; conditions: Homo sapiens, HEK293, 72 h
[5] = Selectivity ratio of IC50 for Plasmodium falciparum Dd2 to IC50 for Plasmodium falciparum 3D7; format: functional
[6] = test system: Plasmodium falciparum; assay: Antimalarial activity against Plasmodium falciparum Dd2 after 72 hrs by DAPI staining-based fluorescence microscopic analysis; format: functional; conditions: Dd2, 72 h
[7] = Cytotoxicity against HEK293 cells assessed as cell growth inhibition at 20 uM after 72 hrs by Alamar blue assay relative to control; format: cell-based; conditions: human, read-out: GI
[8] = test system: Plasmodium falciparum; assay: Antimalarial activity against Plasmodium falciparum 3D7 at 10 uM after 72 hrs by DAPI staining-based fluorescence microscopic analysis; format: functional
[9] = test system: HEK293; assay: Cytotoxicity against HEK293 cells assessed as cell growth inhibition at 40 uM after 72 hrs by Alamar blue assay; format: cell-based; conditions: human, hek293, 72 h
[10] = test system: HEK293; assay: as §1; format: cell-based; conditions: human, hek293, 72 h, 80 µM
[11] = test system: Plasmodium falciparum; assay: Antimalarial activity against Plasmodium falciparum Dd2 at 80 uM after 72 hrs by DAPI staining-based fluorescence microscopic analysis; format: functional

Row | IC50 [3] [µM] | IC50 [6] [µM] | Compound | selectivity ratio [1] | inhibition at 72 h, 80 µM [2] [%] | IC50 [4] [µM] | Ratio IC50 [5] | inhibition at 72 h, 20 µM [7] [%] | Activity [8] | growth inhibition (GI) [9] | growth inhibition (GI) [10] | Activity [11]
1 | 1.42 | 5.03 | CC(C)=CCC[C@H](C)[C@H]1c2cc(C(=O)NCc3ccc(Br)cc3)c(OC(=O)C(C)(C)C)c(OC(=O)C(C)(C)C)c2[C@H](C)C[C@H]1OC(=O)C(C)(C)C | 28 | 71 | 40 | 3.6 |  |  |  |  | 
2 | 8.44 | 10.2 | CC(C)=CCC[C@H](C)[C@H]1c2cc(C(=O)O)c(O)c(OC(=O)C(C)(C)C)c2[C@H](C)C[C@H]1OC(=O)C(C)(C)C | 4.7 | 100 | 40 | 1.2 |  |  |  |  | 
3 | 5.65 | 8.76 | CC(C)=CCC[C@H](C)[C@H]1c2cc(C(=O)NCCN(C)C)c(OC(=O)C(C)(C)C)c(OC(=O)C(C)(C)C)c2[C@H](C)C[C@H]1OC(=O)C(C)(C)C | 2.6 |  | 14.6 | 1.6 |  |  |  |  | 
4 | 2.44 | 4.57 | CC(C)=CCC[C@H](C)[C@H]1c2cc(C(=O)NCCc3ccc(Cl)cc3)c(OC(=O)C(C)(C)C)c(OC(=O)C(C)(C)C)c2[C@H](C)C[C@H]1O | 32 | 68 | 80 | 1.9 |  |  |  |  | 
5 | 2.12 | 6.17 | CC(C)=CCC[C@H](C)[C@H]1c2cc(C(=O)NCc3ccccc3)c(OC(=O)C(C)(C)C)c(OC(=O)C(C)(C)C)c2[C@H](C)C[C@H]1OC(=O)C(C)(C)C | 19 | 82 | 40 | 2.9 |  |  |  |  | 
6 | 6.89 | 8.76 | CC(=O)OCc1cc2c(c(O)c1O)[C@H](C)C[C@@H](OC(C)=O)[C@H]2[C@@H](C)CCC=C(C)C | 11.6 | 59 | 80 | 1.3 |  |  |  |  | 
7 |  |  | CC(=O)O[C@@H]1C[C@@H](C)c2c(cc(C(=O)O)c(O)c2O)[C@@H]1[C@@H](C)CCC=C(C)C |  |  |  |  |  | inactive |  |  | 
8 | 1.36 | 4.96 | CC(C)=CCC[C@H](C)[C@H]1c2cc(C(=O)NCc3ccc(Cl)cc3)c(OC(=O)C(C)(C)C)c(OC(=O)C(C)(C)C)c2[C@H](C)C[C@H]1OC(=O)C(C)(C)C | 29.4 | 86 | 40 | 3.6 |  |  |  |  | 
9 |  |  | CCN(CC)CCCC(C)Nc1ccnc2cc(Cl)ccc12 (stereo not given) [CHLOROQUINE] |  |  | 40 |  |  |  | Non-Toxic |  | 
10 | 9.97 | 18 | CC(C)=CCC[C@H](C)[C@H]1c2cc(C(=O)O)c(OC(=O)C(C)(C)C)c(OC(=O)C(C)(C)C)c2[C@H](C)C[C@H]1OC(=O)C(C)(C)C | 4 | 100 | 40 | 1.8 |  |  |  |  | 
11 | 3.12 | 7.42 | CC(C)=CCC[C@H](C)[C@H]1c2cc(C(=O)NCCc3ccc(Br)cc3)c(OC(=O)C(C)(C)C)c(OC(=O)C(C)(C)C)c2[C@H](C)C[C@H]1OC(=O)C(C)(C)C | > 26 |  | 80 | 2.4 |  |  |  | Non-Toxic | 
12 | 1.4 | 3.63 | CC(C)=CCC[C@H](C)[C@H]1c2cc(C(=O)NCCc3ccccc3)c(OC(=O)C(C)(C)C)c(OC(=O)C(C)(C)C)c2[C@H](C)C[C@H]1OC(=O)C(C)(C)C | > 57 |  | 80 | 2.6 |  |  |  | Non-Toxic | 
13 |  |  | CC(C)=CCC[C@H](C)[C@H]1c2cc(C(=O)O)c(O)c(O)c2[C@H](C)C[C@H]1O |  |  |  |  |  | inactive |  |  | 
14 | 1.79 | 6.13 | CC(C)=CCC[C@H](C)[C@H]1c2cc(C(=O)NCc3ccc(F)cc3)c(OC(=O)C(C)(C)C)c(OC(=O)C(C)(C)C)c2[C@H](C)C[C@H]1OC(=O)C(C)(C)C | 44 | 44 | 80 | 3.4 |  |  |  |  | 
15 | 2.7 | 5.94 | CC(C)=CCC[C@H](C)[C@H]1c2cc(C(=O)NCCc3ccc(Cl)cc3)c(OC(=O)C(C)(C)C)c(OC(=O)C(C)(C)C)c2[C@H](C)C[C@H]1OC(=O)C(C)(C)C | > 30 |  | 80 | 2.2 |  |  |  | Non-Toxic | 
16 | 13.6 |  | CC(C)=CCC[C@H](C)[C@H]1c2cc(C(=O)O)c(OC(=O)C(C)(C)C)c(OC(=O)C(C)(C)C)c2[C@H](C)C[C@H]1O | 2.9 | 70 | 40 |  |  |  |  |  | inactive
17 | 1.25 | 3.76 | CC(C)=CCC[C@H](C)[C@H]1c2cc(C(=O)NCCc3ccc(F)cc3)c(OC(=O)C(C)(C)C)c(OC(=O)C(C)(C)C)c2[C@H](C)C[C@H]1OC(=O)C(C)(C)C | > 64 |  | 80 | 3 |  |  |  | Non-Toxic | 

Row | Compound | IC50 [3] [µM] | IC50 [6] [µM] | selectivity ratio [1] | inhibition at 72 h, 80 µM [2] [%] | IC50 [4] [µM] | Ratio IC50 [5] | inhibition at 72 h, 20 µM [7] [%] | Activity [8] | growth inhibition (GI) [9] | growth inhibition (GI) [10] | Activity [11]
18 | C[C@H]1[C@H](OC(=O)CCC(=O)O)O[C@@H]2O[C@@]3(C)CC[C@H]4[C@H](C)CC[C@@H]1[C@@]24OO3 [ARTESUNATE] |  | 0.001 | > 11600 |  | 10 |  | 91 |  |  |  | 
19 | COc1ccc(C[C@H](N)C(=O)N[C@H]2[C@@H](O)[C@H](n3cnc4c(N(C)C)ncnc43)O[C@@H]2CO)cc1 [PUROMYCIN] | 0.0532 | 0.0438 | 9 |  | 0.46 | 1.16 |  |  |  |  | 
